Assay results published in the CheMixHub viscosity set.

Assay: xn = mol fraction of the nth substance listed

ClCCCCCl + CCC(C)O
101 kPa
Conditions | viscosity [mPa·s]
298.15 K, x1 = 0.1012 | 2.118
298.15 K, x1 = 0.2021 | 1.633
298.15 K, x1 = 0.2996 | 1.408
298.15 K, x1 = 0.4004 | 1.281
298.15 K, x1 = 0.4967 | 1.199
298.15 K, x1 = 0.5999 | 1.158
298.15 K, x1 = 0.7024 | 1.143
298.15 K, x1 = 0.7987 | 1.151
298.15 K, x1 = 0.899 | 1.199
313.15 K, x1 = 0.1002 | 1.369
313.15 K, x1 = 0.2041 | 1.123
313.15 K, x1 = 0.3125 | 0.9913
313.15 K, x1 = 0.3996 | 0.9298
313.15 K, x1 = 0.5046 | 0.8882
313.15 K, x1 = 0.6034 | 0.8716
313.15 K, x1 = 0.7008 | 0.8721
313.15 K, x1 = 0.8052 | 0.8932
313.15 K, x1 = 0.9001 | 0.9458

Nc1cccc(Cl)c1 + CCCCO
viscosity [mPa·s], 101 kPa
Conditions | x1 = 0.0884 | x1 = 0.1792 | x1 = 0.2723 | x1 = 0.368 | x1 = 0.4662 | x1 = 0.5671 | x1 = 0.6708 | x1 = 0.7774 | x1 = 0.8871
303.15 K | 2.47 | 2.654 | 2.84 | 3.03 | 3.219 | 3.412 | 3.607 | 3.806 | 4.02
308.15 K | 2.198 | 2.371 | 2.546 | 2.72 | 2.895 | 3.073 | 3.253 | 3.441 | 3.635
313.15 K | 1.966 | 2.128 | 2.284 | 2.441 | 2.598 | 2.759 | 2.923 | 3.091 | 3.261
318.15 K | 1.761 | 1.911 | 2.052 | 2.19 | 2.328 | 2.468 | 2.61 | 2.756 | 2.897

CCC(=O)O + O
viscosity [mPa·s]
Conditions | x1 = 0.0263 | x1 = 0.0944 | x1 = 0.196 | x1 = 0.362 | x1 = 0.686
293.15 K, 101.33 kPa | 1.322 | 1.977 | 2.601 | – | –
298.15 K, 101 kPa | 1.443 | 2.821 | 3.483 | 3.351 | 2.816
308.15 K, 101 kPa | 1.08 | 1.945 | 2.418 | 2.393 | 2.082
313.15 K, 101.33 kPa | 0.858 | 1.188 | 1.552 | – | –
318.15 K, 101 kPa | 0.856 | 1.434 | 1.789 | 1.789 | 1.592

C1C[C@@H]2[C@H]3CC[C@H](C3)[C@@H]2C1 + CCCCCCCC
viscosity [mPa·s], 100 kPa
Conditions | x1 = 0.1007 | x1 = 0.2005 | x1 = 0.2991 | x1 = 0.4 | x1 = 0.5001 | x1 = 0.5986 | x1 = 0.6988 | x1 = 0.8019 | x1 = 0.9005
293.15 K | 0.616 | 0.697 | 0.806 | 0.956 | 1.085 | 1.282 | 1.537 | 1.896 | 2.342
298.15 K | 0.582 | 0.655 | 0.756 | 0.892 | 1.007 | 1.187 | 1.415 | 1.735 | 2.13
303.15 K | 0.551 | 0.618 | 0.711 | 0.83 | 0.94 | 1.102 | 1.311 | 1.597 | 1.95
308.15 K | 0.523 | 0.585 | 0.67 | 0.78 | 0.879 | 1.027 | 1.215 | 1.475 | 1.793
313.15 K | 0.499 | 0.555 | 0.634 | 0.733 | 0.825 | 0.96 | 1.13 | 1.367 | 1.654

Nc1cccc(Cl)c1 + Brc1ccccc1
100 kPa
Conditions | viscosity [mPa·s]
313.15 K, x1 = 0.6782 | 2.875
318.15 K, x1 = 0.0902 | 1.155

[F-].[Na+] + O
viscosity [mPa·s], 101 kPa
Conditions | x1 = 0.0009 | x1 = 0.0018 | x1 = 0.002 | x1 = 0.0027 | x1 = 0.0036 | x1 = 0.005 | x1 = 0.009
303.15 K | 0.809 | 0.82 | 0.819 | 0.826 | 0.835 | 0.853 | 0.896
308.15 K | 0.734 | 0.746 | 0.747 | 0.755 | 0.761 | 0.775 | 0.81
313.15 K | 0.667 | 0.682 | – | 0.688 | 0.694 | 0.707 | 0.738
318.15 K | 0.61 | 0.621 | 0.623 | 0.629 | 0.635 | 0.648 | 0.675

CC12CCC(CC1)C(C)(C)O2 + C=CC(C)(O)CCC=C(C)C
viscosity [mPa·s], 101.33 kPa
Conditions | 298.15 K | 313.15 K
x1 = 0.0536 | 4.296 | 2.489
x1 = 0.1357 | 4.062 | 2.401
x1 = 0.2205 | 3.835 | 2.316
x1 = 0.3081 | 3.614 | 2.236
x1 = 0.4288 | 3.347 | 2.138
x1 = 0.562 | 3.093 | 2.048
x1 = 0.605 | 3.019 | 2.023
x1 = 0.6809 | 2.9 | 1.983
x1 = 0.8027 | 2.74 | 1.933
x1 = 0.8783 | 2.66 | 1.91
x1 = 0.9599 | 2.591 | 1.892
